14 molecules from patent US8513423B2 (Janssen Pharmaceutica, NV, priority 2010, dated 2013) can be followed below.

In test [1] the target is T1, MGL (Rattus norvegicus, UniProt Q8R431).
T1 construct: one g rat brain was homogenized; from tissue; host or cells: rat brain homogenate
T1 sequence (Q8R431 1-303): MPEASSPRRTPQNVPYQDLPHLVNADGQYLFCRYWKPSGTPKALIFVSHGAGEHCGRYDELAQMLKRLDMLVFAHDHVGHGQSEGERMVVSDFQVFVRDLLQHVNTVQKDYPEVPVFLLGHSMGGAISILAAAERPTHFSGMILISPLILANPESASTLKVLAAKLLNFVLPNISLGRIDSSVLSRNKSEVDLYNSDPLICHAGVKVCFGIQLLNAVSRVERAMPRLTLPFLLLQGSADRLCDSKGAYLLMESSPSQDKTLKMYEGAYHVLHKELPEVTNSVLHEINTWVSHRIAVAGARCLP
The test is described as follows: 2-AG accumulation assay in rat brain homogenate. Format: biochemical. The following applies: compound @1 μM; for 2-AG accumulation, percent of vehicle control at 1 µM: read-out: Rat Brain 2AG % VehCntrl (%) @1 μM. The procedure:
After a 15-min incubation time at 37° C., CaCl2 (final concentration=10 mM) was added and then incubated for 15 min at 37° C. in a total volume of 5 mL. The reactions were stopped with 6 mL organic solvent extraction solution of 2:1 chloroform/methanol. Accumulated 2-AG in the organic phase was measured by a HPLC/MS method, according to the following equation: percent vehicle=(2-AG accumulation in the presence of compound/2-AG accumulation in vehicle)×100.

Test [2] has as its target T2, mutant MGL (Homo sapiens, UniProt Q99685, L169S/L176S).
T2 construct: purified mutant MGL (mut-MGLL 11-313 L179S L186S)
T2 sequence (Q99685 1-303 L169S/L176S): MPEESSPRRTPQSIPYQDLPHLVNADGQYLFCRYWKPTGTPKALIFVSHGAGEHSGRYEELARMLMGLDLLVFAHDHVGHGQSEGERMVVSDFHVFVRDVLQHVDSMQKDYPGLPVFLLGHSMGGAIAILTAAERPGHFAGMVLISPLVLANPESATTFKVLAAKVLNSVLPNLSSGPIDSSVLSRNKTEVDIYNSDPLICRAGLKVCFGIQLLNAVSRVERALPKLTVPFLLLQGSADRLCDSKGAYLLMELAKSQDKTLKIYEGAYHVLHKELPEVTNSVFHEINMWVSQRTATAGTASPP
The test is described as follows: MGL ThermoFluor assay - mutant. Format: binding. The procedure: The ThermoFluor (TF) assay is a 384-well plate-based binding assay that measures thermal stability of proteins^1,2. The experiments were carried out using instruments available from Johnson & Johnson Pharmaceutical Research & Development, LLC. TF dye used in all experiments was 1,8-ANS (Invitrogen: A-47). Final TF assay conditions used for MGL studies were 0.07 mg/ml of mutant MGL, 100 μM ANS, 200 mM NaCl, 0.001% Tween-20 in 50 mM PIPES (pH=7.0).
Screening compound plates contained 100% DMSO compound solutions at a single concentration. For follow-up concentration-response studies, compounds were arranged in a pre-dispensed plate (Greiner Bio-one: 781280), wherein compounds were serially diluted in 100% DMSO across 11 columns within a series. Columns 12 and 24 were used as DMSO reference and contained no compound. For both single and multiple compound concentration-repsonse experiments, the compound aliquots (46 nL) were robotically predispensed directly into 384-well black assay plates (Abgene: TF-0384/k) using the Hummingbird liquid handler. Following compound dispension, protein and dye solutions were added to achieve the final assay volume of 3 μL. The assay solutions were overlayed with 1 μl of silicone oil (Fluka, type DC 200: 85411) to prevent evaporation.
Bar-coded assay plates were robotically loaded onto a thermostatically controlled PCR-type thermal block and then heated from 40 to 90° C. degrees at a ramp-rate of 1° C./min for all experiments. Fluorescence was measured by continuous illumination with UV light (Hamamatsu LC6), supplied via fiber optics and filtered through a band-pass filter (380-400 nm; >6 OD cutoff). Fluorescence emission of the entire 384-well plate was detected by measuring light intensity using a CCD camera (Sensys, Roper Scientific) filtered to detect 500±25 nm, resulting in simultaneous and independent readings of all 384 wells. A single image with 20-sec exposure time was collected at each temperature, and the sum of the pixel intensity in a given area of the assay plate was recorded vs temperature and fit to standard equations to yield the Tm^1. • 1. Pantoliano, M. W., Petrella, E. C., Kwasnoski, J. D., Lobanov, V. S., Myslik, J., Graf, E., Carver, T., Asel, E., Springer, B. A., Lane, P., and Salemme, F. R. (2001) J Biomol Screen 6, 429-40. • 2. Matulis, D., Kranz, J. K., Salemme, F. R., and Todd, M. J. (2005) Biochemistry 44, 5258-66.
The Kd values for compounds of Formula (I) were determined from a fit of the equation to the concentration-response plot of the fractional activity as a function of Tm. For some experiments, quantitative NMR spectroscopy (qNMR) was used to measure concentration of the initial 100% DMSO compound solutions and, using the same fitting method, qKd values were determined

The target of test [3] is T3, purified wild type MGL (wt-MGLL 6H-11-313) (Homo sapiens, UniProt Q99685).
T3 construct: purified wild type MGL (wt-MGLL 6H-11-313)
T3 sequence (Q99685 1-303): T2 sequence (Q99685 1-303 L169S/L176S) with S169L, S176L
The test is described as follows: MGL enzyme activity assay (4MU-B cleavage), wild type MGL. Format: biochemical. The following applies: 10 μM 4MU-B, 5 nM enzyme, 37° C., read-out: MGL wild type inh IC50. The procedure:
All rate-based assays were performed in black 384-well polypropylene PCR microplates (Abgene) in a total volume of 30 μL. Substrate 4-methylumbelliferyl butyrate (4MU-B; Sigma) and either purified mutant MGL (mut-MGLL 11-313 L179S L186S) or purified wild type MGL (wt-MGLL 6H-11-313) were diluted separately into 20 mM PIPES buffer (pH=7.0), containing 150 mM NaCl and 0.001% Tween 20. Compounds of Formula (I) were pre-dispensed (50 nL) into the assay plate using a Cartesian Hummingbird prior to adding 4MU-B (25 μL of 1.2× solution to a final concentration of 10 μM) followed by enzyme (5 μL of a 6× solution to a final concentration of 5 nM) to initiate the reaction. Final compound concentrations ranged from 17 to 0.0003 μM. The fluorescence change due to 4MU-B cleavage was monitored with excitation and emission wavelengths of 335 and 440 nm, respectively, and a bandwidth of 10 nm (Safire^2, Tecan) at 37° C. for 5 min.
The IC50 values for compounds of Formula (I) were determined using Excel from a fit of the equation to the concentration-response plot of the fractional activity as a function of inhibitor concentration.

The mark [4] stands for this setting: 0.07 mg/ml mutant MGL, pH=7.0, read-out: MGL mutant ThermoFluor Kd.
The mark [5] stands for this setting: compound concentration measured by qNMR, read-out: MGL mutant ThermoFluor qKd (using qNMR conc.).

Where a chain is given by its changes, count along the chain named. Like-named read-outs stand apart in the source and are kept apart here. Where only a bound is given, the exact number is not on record here.

One may read the IC50 as the concentration needed to halve the response being measured. Turning to `O=C(c1cccc(-c2cccc(F)c2)c1)N1CC(C2CCN(C(=O)c3nccs3)CC2)C1` [Cpd 17, 4-{1-[(3′-Fluorobiphenyl-3-yl)carbonyl]azetidin-3-yl}-1-(1,3-thiazol-2-ylcarbonyl)piperidine], the 2-AG accumulation, percent of vehicle control at 1 µM in test [1] worked out at 184%. Also, the Kd in test [2] (setting [4]) was 99 nM. Further, the IC50 in test [3] came to 17.3 nM.
For `O=C(c1ccc2nc(-c3ccccc3)oc2c1)N1CC(C2CCN(C(=O)c3nccs3)CC2)C1` [Cpd 28, 2-Phenyl-6-({3-[1-(1,3-thiazol-2-ylcarbonyl)piperidin-4-yl]azetidin-1-yl}carbonyl)-1,3-benzoxazole], in that order: 777%, 11.1 nM and 16.4 nM.
Consider `O=C(c1cccc(-c2cccc(F)c2)c1)N1CCC(C2CN(C(=O)c3ccc[nH]3)C2)CC1` [Cpd 53, 1-[(3′-Fluorobiphenyl-3-yl)carbonyl]-4-[1-(1H-pyrrol-2-ylcarbonyl)azetidin-3-yl]piperidine], for which the 2-AG accumulation, percent of vehicle control at 1 µM in test [1] is 225%. Also, the Kd in test [2] (setting [5]) was 33.3 nM. For the same molecule, the IC50 in test [3] turned out to be 46.6 nM.
With `O=C(c1cscn1)N1CCC(C2CN(C(=O)c3sc4cc(F)ccc4c3Cl)C2)CC1` [Cpd 7, 4-{1-[(3-Chloro-6-fluoro-1-benzothiophen-2-yl)carbonyl]azetidin-3-yl}-1-(1,3-thiazol-4-ylcarbonyl)piperidine], in test [1], the 2-AG accumulation, percent of vehicle control at 1 µM is 185%. The Kd in test [2] (setting [4]) was found to be 25 nM. The half-inhibitory concentration (IC50) in test [3] came to 56.5 nM.
Consider “1-(1H-Pyrrol-2-ylcarbonyl)-4-[1-({4-3-(trifluoromethyl)benzyl]phenyl}carbonyl)azetidin-3-yl]piperidine [Cpd 25]”, for which the “Rat Brain 2AG % VehCntrl (%) @1 μM” value in test [1] (percent vehicle) is recorded as 540%. For the same molecule, the Kd in test [2] (setting [4]) came out at 27.5 nM. Besides, in test [3], the IC50 is 12 nM.
As to `O=C(c1cscn1)N1CC(C2CCN(C(=O)c3sc4cc(C(F)(F)F)ccc4c3Cl)CC2)C1` [Cpd 70, 1-{[3-Chloro-6-(trifluoromethyl)-1-benzothiophen-2-yl]carbonyl}-4-[1-(1,3-thiazol-4-ylcarbonyl)azetidin-3-yl]piperidine], the 2-AG accumulation, percent of vehicle control at 1 µM in test [1] was 561%. Further, in test [2] (setting [5]), the Kd is 0.6 nM. Moreover, the IC50 in test [3] turned out to be 8 nM.
`Cc1c(C(=O)N2CCC(C3CN(C(=O)c4ccc[nH]4)C3)CC2)sc2cc(C(F)(F)F)ccc12` [Cpd 62]: the 2-AG accumulation, percent of vehicle control at 1 µM in test [1] came to 422%. Besides, the Kd was 1.3 nM in test [2] (setting [4]) and 0.6 nM in test [2] (setting [5]). Moreover, the IC50 in test [3] was below 5 nM.
In the case of `O=C(c1ccc(Cc2ccc(C(F)(F)F)cc2)cc1)N1CC(C2CCN(C(=O)c3ccc[nH]3)CC2)C1` [Cpd 39, 1-(1H-Pyrrol-2-ylcarbonyl)-4-[1-({4-[4-(trifluoromethyl)benzyl]phenyl}carbonyl)azetidin-3-yl]piperidine], in test [1], the 2-AG accumulation, percent of vehicle control at 1 µM amounted to 371%. Further, the Kd in test [2] (setting [5]) came out at 48.9 nM. Further, in test [3], the IC50 was below 5 nM.
In the case of `O=C(c1ccc2c(ccn2-c2ccc(F)cc2)c1)N1CC(C2CCN(C(=O)c3nccs3)CC2)C1` [Cpd 30, 1-(4-Fluorophenyl)-5-({3-[1-(1,3-thiazol-2-ylcarbonyl)piperidin-4-yl]azetidin-1-yl}carbonyl)-1H-indole], the 2-AG accumulation, percent of vehicle control at 1 µM in test [1] was 443%. The Kd in test [2] (setting [4]) was 2.5 nM. In addition, in test [3], the IC50 was below 5 nM.
As to `O=C(c1ccc2c(ccn2-c2ccc(F)cc2)c1)N1CC(C2CCN(C(=O)c3ccc[nH]3)CC2)C1` [Cpd 42, 1-(4-Fluorophenyl)-5-({3-[1-(1H-pyrrol-2-ylcarbonyl)piperidin-4-yl]azetidin-1-yl}carbonyl)-1H-indole], in test [1], the 2-AG accumulation, percent of vehicle control at 1 µM stood at 498%. The Kd in test [2] (setting [5]) amounted to 24.5 nM. Also, the IC50 in test [3] is below 5 nM.
For `O=C(c1ccc(Cc2cccc(C(F)(F)F)c2)cc1)N1CCC(C2CN(C(=O)c3cscn3)C2)CC1` [Cpd 58, 4-[1-(1,3-Thiazol-4-ylcarbonyl)azetidin-3-yl]-1-({4-[3-(trifluoromethyl)benzyl]phenyl}carbonyl)piperidine], in that order: 370%, 6.9 nM and below 5 nM.
As to `O=C(c1ccc(Cc2cccc(C(F)(F)F)c2)cc1)N1CC(C2CCN(C(=O)c3nccs3)CC2)C1` [Cpd 19, 1-(1,3-Thiazol-2-ylcarbonyl)-4-[1-({4-[3-(trifluoromethyl)benzyl]phenyl}carbonyl)azetidin-3-yl]piperidine], the 2-AG accumulation, percent of vehicle control at 1 µM in test [1] stood at 559%. Moreover, the Kd in test [2] (setting [4]) was found to be 9 nM. For the same molecule, the IC50 in test [3] is below 5 nM.
`O=C(c1ccc2c(ccn2-c2ccc(F)c(F)c2)c1)N1CC(C2CCN(C(=O)c3cscn3)CC2)C1` [Cpd 38]: the 2-AG accumulation, percent of vehicle control at 1 µM in test [1] is 425%. Besides, in test [2] (setting [4]), the Kd is 15.5 nM. In test [3], the IC50 was 5 nM.
For the molecule `O=C(c1ccc(Cc2ccc(C(F)(F)F)cc2)cc1)N1CCC(C2CN(C(=O)c3nccs3)C2)CC1` [Cpd 63, 4-[1-(1,3-Thiazol-2-ylcarbonyl)azetidin-3-yl]-1-({4-[4-(trifluoromethyl)benzyl]phenyl}carbonyl)piperidine], the 2-AG accumulation, percent of vehicle control at 1 µM in test [1] came to 435%. In addition, in test [2] (setting [5]), the Kd turned out to be 17.4 nM. The half-inhibitory concentration (IC50) in test [3] is below 5 nM.
